Converted amounts (≈) assume the structure as drawn.
Key:
[1] = test system: H. pylori ATCC 43504 Type strain; experiment: Bacterial eradication in H. pylori-infected Mongolian gerbils, alone or combined with famotidine, twice a day for 3 days; type: in vivo, Mongolian gerbil; conditions: bid
Experimental: To a male 7-week-old Mongolian gerbil after fasting for about 20 hours, was inoculated orally a culture broth of H. pylori ATCC 43504 Type strain upon 24 hours of culture. After administration of the culture broth, the Mongolian gerbil was fasted and deprived of water for about 4 hours, after which a normal solid feed and drinking water were given to Mongolian gerbils infected with H. pylori. Starting from 6 weeks after infection, the compound of the present invention and famotidine which is a histamine H2 antagonist were administered alone or in combination twice a day for 3 days. The compound of the present invention was administered orally and famotidine was subcutaneously administered immediately before administration of the compound of the present invention. After completion of the drug administration, Mongolian gerbils were sacrificed at day 3. The stomach was excised and incised along greater curvature and its content was removed. The stomach was homogenized in 10 ml of phosphate buffer--physiological saline. […] The medium was incubated under CO2 and the colonies of H. pylori were counted. A case where colonies were not detected was evaluated as the case of bacterial eradication. As a control, phosphate buffer--physiological saline was used.

H. pylori = experiment: MIC given in Table 1 beside eradication in H. pylori-infected Mongolian gerbils; type: cell-based; conditions: Helicobacter pylori
Experimental: Clinically isolated strains (18 strains) were cultured using 5% horse serum under microaerophilic conditions at 37° C. for 72 hours and diluted with Brucella broth to give a bacterial solution at about 10^6 cells/ml. The diluted bacterial solution was inoculated with a microplanter on an agar plate containing 2-fold dilution concentration series of test compound and cultured under 8% CO2 at 37° C. for 3 to 4 days. Thereafter, the minimum growth inhibitory concentration (MIC) was measured. MIC50 (minimum concentration to inhibit growth in 50% of the test strains) and MIC90 (minimum concentration to inhibit growth in 90% of the test strains) were calculated from the obtained values. To a male 7-week-old Mongolian gerbil after fasting for about 20 hours, was inoculated orally a culture broth of H. pylori ATCC 43504 Type strain upon 24 hours of culture. After administration of the culture broth, the Mongolian gerbil was fasted and deprived of water for about 4 hours, after which a normal solid feed and drinking water were given to Mongolian gerbils infected with H. pylori. Starting from 6 weeks after infection, the drug was orally administered twice a day for 7 days. […] The medium was incubated under CO2 and the colonies of H. pylori were counted. A case where colonies were not detected was evaluated as the case of bacterial eradication.

[2] = test system: H. pylori ATCC 43504 Type strain; experiment: Bacterial eradication in H. pylori-infected Mongolian gerbils, drug orally twice a day for 7 days; type: in vivo, Mongolian gerbil; conditions: bid, oral
Experimental: To a male 7-week-old Mongolian gerbil after fasting for about 20 hours, was inoculated orally a culture broth of H. pylori ATCC 43504 Type strain upon 24 hours of culture. After administration of the culture broth, the Mongolian gerbil was fasted and deprived of water for about 4 hours, after which a normal solid feed and drinking water were given to Mongolian gerbils infected with H. pylori. Starting from 6 weeks after infection, the drug was orally administered twice a day for 7 days. After completion of the drug administration, Mongolian gerbils were sacrificed at day 3. The stomach was excised and incised along greater curvature, and its content was removed. The stomach was homogenized in 10 ml of phosphate buffer--physiological saline in a homogenizer. The homogenate was appropriately diluted with the same buffer and 0.1 ml of sample was plated onto H. pylori selective medium. The medium was incubated under CO2 and the colonies of H. pylori were counted. A case where colonies were not detected was evaluated as the case of bacterial eradication.

[3] = test system: H. pylori clinically isolated strains (18 strains); experiment: In vitro antibacterial activity against H. pylori clinically isolated strains (agar dilution MIC); type: cell-based; conditions: Helicobacter pylori, 18 clinically isolated strains, agar plate, 8% CO2, 37° C., 3 to 4 days
Experimental: Clinically isolated strains (18 strains) were cultured using 5% horse serum under microaerophilic conditions at 37° C. for 72 hours and diluted with Brucella broth to give a bacterial solution at about 10^6 cells/ml. The diluted bacterial solution was inoculated with a microplanter on an agar plate containing 2-fold dilution concentration series of test compound and cultured under 8% CO2 at 37° C. for 3 to 4 days. Thereafter, the minimum growth inhibitory concentration (MIC) was measured. MIC50 (minimum concentration to inhibit growth in 50% of the test strains) and MIC90 (minimum concentration to inhibit growth in 90% of the test strains) were calculated from the obtained values.

| MIC (H. pylori) | MIC50 ([3]; read-out: MIC50 (minimum concentration to inhibit growth in 50% of the test strains)) | MIC90 ([3]; read-out: MIC90 (minimum concentration to inhibit growth in 90% of the test strains)) | SMILES | Eradication rate ([1]; 0.3 mg/kg, oral) | Eradication rate ([1]; 1.0 mg/kg, oral) | Eradication rate ([1]; 3.0 mg/kg, oral) | visual and histopathological repair of inflammatory state [1] | bacterial eradication effect when concurrently administered with famotidine (in words) ([1]; with famotidine subcutaneous) | bacterial eradication effect by single administration (in words) ([1]; without famotidine) | Eradication rate ([2]; 0.3 mg/kg) | Eradication rate ([2]; 1.0 mg/kg) | Eradication rate ([2]; 3.0 mg/kg) | bacterial eradication of H. pylori (in words) [2] | visual and histopathological repair of inflammatory state [2] | Eradication rate ([2]; 10.0 mg/kg) | Eradication rate ([1]; 100 mg/kg, subcutaneous) |
| --- | --- | --- | --- | --- | --- | --- | --- | --- | --- | --- | --- | --- | --- | --- | --- | --- |
| 0.025 µg/mL (≈ 0.0596 µM) | 0.025 µg/mL (≈ 0.0596 µM) | 0.05 µg/mL (≈ 0.119 µM) | COc1c(N2CCO[C@@H](CN(C)C)C2)c(F)cc2c(=O)c(C(=O)O)cn(C3CC3)c12 [Y-34867, (S)-1-cyclopropyl-1,4-dihydro-7-[2-(N,N-dimethylaminomethyl)morpholino]-6-fluoro-8-methoxy-4-oxoquinoline-3-carboxylic acid] | 0% | 60% | 100% | promoted | the effect is enforced | superior bacterial eradication effect | 0% | 80% | 100% | evident bacterial eradication of H. pylori | promoted | – | – |
| 0.025 µg/mL (≈ 0.0684 µM) | – | – | CC1(C)S[C@@H]2[C@H](NC(=O)[C@H](N)c3ccc(O)cc3)C(=O)N2[C@H]1C(=O)O [amoxicillin, reference compound] | – | – | – | – | – | – | – | – | 0% | – | – | 100% | – |
| – | – | – | NC(N)=Nc1nc(CSCCC(N)=NS(N)(=O)=O)cs1 [famotidine, reference compound] | – | – | – | – | – | – | – | – | – | – | – | – | 0% |
